Results on eight molecules are retold here after US8765748B2, “Indazolyl, benzimidazolyl, benzotriazolyl substituted indolinone derivatives as kinase inhibitors useful in the treatment of cancer” (University Health Network, priority 2007, dated 2014).

What all share (assay type): biochemical
Experiment [1] addresses T1, human PLK4 (Homo sapiens, UniProt O00444).
T1 construct: amino terminal GST fusion of residues 1-391 of human PLK4; made in house; host or cells: E. coli
T1 sequence (O00444 1-391): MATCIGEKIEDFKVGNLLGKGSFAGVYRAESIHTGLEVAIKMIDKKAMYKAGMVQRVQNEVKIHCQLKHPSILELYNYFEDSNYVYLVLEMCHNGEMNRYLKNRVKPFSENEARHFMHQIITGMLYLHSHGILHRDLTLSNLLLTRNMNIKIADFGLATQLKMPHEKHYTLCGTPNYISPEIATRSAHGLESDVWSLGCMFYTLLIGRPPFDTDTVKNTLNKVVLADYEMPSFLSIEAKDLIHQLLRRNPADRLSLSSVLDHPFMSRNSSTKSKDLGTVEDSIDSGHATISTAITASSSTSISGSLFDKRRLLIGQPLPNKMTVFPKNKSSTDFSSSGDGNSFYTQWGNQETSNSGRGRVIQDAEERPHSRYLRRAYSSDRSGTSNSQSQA
Description: PLK4 Inhibition Assay (indirect ELISA). The conditions noted are these: 15 μM ATP, 4 nM GST-PLK4; read-out: PLK4 IC50 Ranges. The gist of the method:
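IC50 values, from 4-point logistic fitting, reflect remaining activity measured by indirect ELISA. Enzyme was GST-PLK4 treated with lambda phosphatase and given a 15-minute pre-incubation with compound before ATP start.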
Background: In an ELISA, binding on a coated surface is turned into a signal by an enzyme label.

Experiment [2] has as its target T2, PLK1 (Homo sapiens, UniProt P53350).
T2 construct: purchased Invitrogen PV3501
Description: PLK1 Inhibition Assay (Z-Lyte). The conditions noted are these: for IC50: 25 μM ATP, 8 nM PLK1, read-out: PLK1 IC50 Ranges; for inhibition at 10 µM: 10 μM compound, read-out: PLK1 relative inhibition percentage at a dose of 10 μM. As to the method:
PLK1 inhibition was determined using the Z-Lyte assay kit from Invitrogen (cat #PV3802). […] The % inhibition values were determined according to the manufacturer's directions and IC50 values were obtained using a non-linear 4 point logistic curve fit (XLfit4, IDBS)

In experiment [3] the target is T3, PLK2 (Homo sapiens, UniProt Q9NYY3).
T3 construct: purchased Invitrogen PV4204
T3 sequence (Q9NYY3 whole entry): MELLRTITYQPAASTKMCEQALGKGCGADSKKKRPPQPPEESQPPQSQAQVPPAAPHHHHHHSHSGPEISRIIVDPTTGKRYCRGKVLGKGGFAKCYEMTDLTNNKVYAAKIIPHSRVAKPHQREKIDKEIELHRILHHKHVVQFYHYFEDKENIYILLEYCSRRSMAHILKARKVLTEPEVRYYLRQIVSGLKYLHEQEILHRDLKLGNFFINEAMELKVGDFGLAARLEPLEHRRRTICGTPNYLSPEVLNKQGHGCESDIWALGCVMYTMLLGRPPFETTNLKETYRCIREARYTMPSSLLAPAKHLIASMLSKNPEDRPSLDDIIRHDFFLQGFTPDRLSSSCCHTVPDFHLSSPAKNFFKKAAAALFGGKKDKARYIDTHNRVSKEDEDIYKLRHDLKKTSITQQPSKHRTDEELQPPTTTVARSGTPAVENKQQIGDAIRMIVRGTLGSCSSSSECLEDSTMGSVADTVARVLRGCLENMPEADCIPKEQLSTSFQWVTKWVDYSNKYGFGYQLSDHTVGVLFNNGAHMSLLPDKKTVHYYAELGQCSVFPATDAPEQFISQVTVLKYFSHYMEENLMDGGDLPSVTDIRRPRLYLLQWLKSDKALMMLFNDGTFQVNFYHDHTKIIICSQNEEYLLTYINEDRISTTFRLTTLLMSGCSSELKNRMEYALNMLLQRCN
The experiment in a line: PLK2 Inhibition Assay (Z-Lyte). The conditions noted are these: for IC50: 60 μM ATP, 133 nM PLK2, read-out: PLK2 IC50 Ranges; for inhibition at 10 µM: 10 μM compound, read-out: PLK2 relative inhibition percentage at a dose of 10 μM. As to the method:
PLK2 inhibition was determined using the Z-Lyte assay kit from Invitrogen (cat #PV3802). The assay was performed using the recommended manufacturer's instructions with 60 μM ATP and 133 nM PLK2 (Invitrogen cat #PV4204). The % inhibition values were determined according to the manufacturer's directions and IC50 values were obtained using a non-linear 4 point logistic curve fit (XLfit4, IDBS)

In experiment [4] the target is T4, Aurora A (Homo sapiens, UniProt O14965).
T4 construct: purchased Invitrogen PV3612
T4 sequence (O14965 1-403): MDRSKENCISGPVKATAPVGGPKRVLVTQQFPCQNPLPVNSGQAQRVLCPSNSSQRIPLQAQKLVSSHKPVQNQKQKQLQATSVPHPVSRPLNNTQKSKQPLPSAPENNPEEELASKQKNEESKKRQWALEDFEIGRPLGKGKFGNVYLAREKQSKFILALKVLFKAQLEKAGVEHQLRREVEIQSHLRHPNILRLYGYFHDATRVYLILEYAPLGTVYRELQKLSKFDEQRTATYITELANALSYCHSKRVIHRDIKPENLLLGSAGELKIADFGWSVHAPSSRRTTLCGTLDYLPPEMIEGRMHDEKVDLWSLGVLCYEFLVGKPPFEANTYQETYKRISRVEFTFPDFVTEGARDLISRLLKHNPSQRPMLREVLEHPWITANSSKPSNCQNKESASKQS
The experiment in a line: Aurora A Inhibition Assay (Z-Lyte). The conditions noted are these: for IC50: 20 μM ATP, 12 nM Aurora A, read-out: Aurora A IC50 Ranges; for inhibition at 10 µM: 10 μM compound, read-out: Aurora A relative inhibition percentage at a dose of 10 μM. As to the method: Aurora A inhibition was determined using the Z-Lyte assay kit from Invitrogen. The assay was performed using the recommended manufacturer's instructions with 20 μM ATP and 12 nM Aurora A (Invitrogen cat #PV3612). The % inhibition values were determined according to the manufacturer's directions and IC50 values were obtained using a non-linear 4 point logistic curve fit (XLfit4, IDBS)

In experiment [5] the target is T5, Aurora B (Homo sapiens, UniProt Q96GD4).
T5 construct: purchased Invitrogen PV3970
T5 sequence (Q96GD4 whole entry): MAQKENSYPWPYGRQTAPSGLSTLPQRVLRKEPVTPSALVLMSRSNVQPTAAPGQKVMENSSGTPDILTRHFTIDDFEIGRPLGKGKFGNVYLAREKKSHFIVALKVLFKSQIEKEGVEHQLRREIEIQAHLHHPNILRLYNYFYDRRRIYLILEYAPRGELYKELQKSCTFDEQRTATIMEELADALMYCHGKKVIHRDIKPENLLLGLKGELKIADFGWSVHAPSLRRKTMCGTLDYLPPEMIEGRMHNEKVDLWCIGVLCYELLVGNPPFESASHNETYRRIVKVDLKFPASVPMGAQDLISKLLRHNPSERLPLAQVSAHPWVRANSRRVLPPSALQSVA
Description: Aurora B Inhibition Assay (Z-Lyte). The conditions noted are these: 128 μM ATP, 28 nM Aurora B; read-out: Aurora B IC50 Ranges. On the procedure:
Aurora B inhibition was determined using the Z-Lyte assay kit from Invitrogen. The assay was performed using the recommended manufacturer's instructions with 128 μM ATP and 28 nM Aurora B (Invitrogen cat #PV3970). The % inhibition values were determined according to the manufacturer's directions and IC50 values were obtained using a non-linear 4 point logistic curve fit (XLfit4, IDBS)

Experiment [6] has as its target Abl (Homo sapiens, UniProt P00519). Description: Kinase Selectivity Assay (CEREP, HTRF). Details: CEREP, France (ran the assays). The conditions noted are these: read-out: % Inhibition at 10 μM Concentration, Abl. On the procedure:
kinase, ROCK2, RSK2, Src kinase, Syk, and TRKA. The % Inhibition was determined

Where only a bound is given, the exact number is not on record here.

T2 sequence (P53350 whole entry): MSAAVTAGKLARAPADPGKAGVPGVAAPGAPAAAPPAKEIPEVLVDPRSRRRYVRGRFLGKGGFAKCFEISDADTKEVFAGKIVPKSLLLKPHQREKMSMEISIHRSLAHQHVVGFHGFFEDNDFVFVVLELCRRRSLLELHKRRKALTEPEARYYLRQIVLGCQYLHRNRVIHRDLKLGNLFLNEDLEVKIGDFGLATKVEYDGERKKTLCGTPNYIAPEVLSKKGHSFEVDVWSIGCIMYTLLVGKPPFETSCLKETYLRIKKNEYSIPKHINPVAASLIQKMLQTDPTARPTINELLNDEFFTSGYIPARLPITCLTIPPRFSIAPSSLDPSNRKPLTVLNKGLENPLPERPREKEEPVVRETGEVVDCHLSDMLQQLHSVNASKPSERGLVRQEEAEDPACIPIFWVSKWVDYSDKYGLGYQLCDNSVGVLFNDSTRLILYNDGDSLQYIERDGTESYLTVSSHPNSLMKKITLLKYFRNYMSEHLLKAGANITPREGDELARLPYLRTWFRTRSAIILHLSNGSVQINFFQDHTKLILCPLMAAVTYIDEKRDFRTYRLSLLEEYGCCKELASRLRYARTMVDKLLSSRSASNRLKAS
Sequence of Abl (P00519 whole entry): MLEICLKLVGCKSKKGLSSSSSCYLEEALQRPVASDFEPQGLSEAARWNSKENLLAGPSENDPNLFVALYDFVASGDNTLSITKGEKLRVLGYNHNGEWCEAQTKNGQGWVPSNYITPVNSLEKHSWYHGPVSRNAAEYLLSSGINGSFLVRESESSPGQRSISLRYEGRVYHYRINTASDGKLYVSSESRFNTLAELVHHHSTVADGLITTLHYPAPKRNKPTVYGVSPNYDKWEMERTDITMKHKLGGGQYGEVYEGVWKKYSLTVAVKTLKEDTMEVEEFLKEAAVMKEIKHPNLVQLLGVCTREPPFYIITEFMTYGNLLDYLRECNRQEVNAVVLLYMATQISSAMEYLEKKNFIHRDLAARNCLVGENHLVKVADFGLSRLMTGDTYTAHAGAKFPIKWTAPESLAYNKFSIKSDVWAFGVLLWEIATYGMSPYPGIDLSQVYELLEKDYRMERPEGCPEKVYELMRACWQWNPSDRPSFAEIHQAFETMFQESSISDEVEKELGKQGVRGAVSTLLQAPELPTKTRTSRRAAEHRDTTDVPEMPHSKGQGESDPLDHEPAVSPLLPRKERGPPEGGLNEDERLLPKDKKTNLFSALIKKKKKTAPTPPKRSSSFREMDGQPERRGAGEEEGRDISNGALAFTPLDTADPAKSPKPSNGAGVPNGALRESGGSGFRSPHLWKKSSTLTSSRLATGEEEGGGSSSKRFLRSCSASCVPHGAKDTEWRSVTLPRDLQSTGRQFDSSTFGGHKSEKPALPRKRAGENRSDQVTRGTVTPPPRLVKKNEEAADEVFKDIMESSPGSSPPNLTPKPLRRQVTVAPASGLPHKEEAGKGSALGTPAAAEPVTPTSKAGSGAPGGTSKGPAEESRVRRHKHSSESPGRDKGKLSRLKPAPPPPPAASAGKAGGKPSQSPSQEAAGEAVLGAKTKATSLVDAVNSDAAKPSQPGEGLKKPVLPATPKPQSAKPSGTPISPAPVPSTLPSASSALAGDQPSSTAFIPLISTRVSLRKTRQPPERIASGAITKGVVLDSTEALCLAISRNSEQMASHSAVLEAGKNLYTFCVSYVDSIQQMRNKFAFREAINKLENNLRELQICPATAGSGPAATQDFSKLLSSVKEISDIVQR

In the case of `O=C1Nc2ccccc2C1=Cc1ccc2c(/C=C/c3ccccn3)n[nH]c2c1` (mixture of isomers) [Example A41, (E and Z)-3-((3-((E)-2-(pyridin-2-yl)vinyl)-1H-indazol-6-yl)methylene)indolin-2-one], the IC50 was under 5 µM in experiment [1]; over 50 µM in experiment [2]; over 50 µM in experiment [3]; under 5 µM in experiment [4]; under 5 µM in experiment [5]. Moreover, the inhibition at 10 µM in experiment [6] stood at 100%.

In the case of `COc1ccc2c(c1)C(=Cc1ccc3c(-c4ccc(N5CCN(C)CC5)nc4)n[nH]c3c1)C(=O)N2` (mixture of isomers) [Example A97, (E and Z)-5-methoxy-3-((3-(6-(4-methylpiperazin-1-yl)pyridin-3-yl)-1H-indazol-6-yl)methylene)indolin-2-one], the IC50 in experiment [1] and in experiment [5] was under 5 µM each time. The inhibition at 10 µM in experiment [6] is 99%.

In the case of `CN(C)Cc1ccc(/C=C/c2n[nH]c3cc(C=C4C(=O)Nc5ccccc54)ccc23)cc1` (mixture of isomers) [Example A106, (E and Z)-3-[(3-{(E)-2-[4-((dimethylamino)methyl)-phenyl]-ethenyl}-1H-indazol-6-yl)methylidene]-1,3-dihydro-2H-indol-2-one 2,2,2-trifluoroacetate], the IC50 in experiment [1] and in experiment [5] was under 5 µM in each case. In addition, the figures for the inhibition at 10 µM in experiment [2] and in experiment [4] were under 50% and over 50%, respectively.

`CN1CCN(c2ccc(/C=C/c3n[nH]c4cc(C=C5C(=O)Nc6ccccc65)ccc34)cn2)CC1` (mixture of isomers) [Example A108, (E and Z)-3-((3-((E)-2-(6-(4-methylpiperazin-1-yl)pyridin-3-yl)vinyl)-1H-indazol-6-yl)methylene)indolin-2-one]: the IC50 in experiment [1], in experiment [4] and in experiment [5] was under 5 µM in each case. Besides, the inhibition at 10 µM in experiment [2] and in experiment [3] was under 50% throughout.

Regarding `O=C1Nc2ncc(Br)cc2C1=Cc1ccc2c(/C=C/c3ccncc3)n[nH]c2c1` (mixture of isomers) [Example A109, (E and Z)-5-bromo-3-((3-((E)-2-(pyridin-4-yl)vinyl)-1H-indazol-6-yl)methyl-ene)-1H-pyrrolo[2,3-b]pyridin-2(3H)-one], the IC50 in experiment [1], in experiment [4] and in experiment [5] was under 5 µM each time. Besides, the inhibition at 10 µM in experiment [2] and in experiment [3] was under 50% throughout.

As for `O=C1Nc2ccccc2/C1=C\c1ccc2[nH]nnc2c1` [Example A1, (E)-3-((1H-benzo[d][1,2,3]triazol-5-yl)methylene)indolin-2-one], the IC50 is under 5 µM in experiment [1], 5 to 50 µM in experiment [2], 5 to 50 µM in experiment [3] and under 5 µM in experiment [5]. Besides, the inhibition at 10 µM in experiment [4] was under 50%; in experiment [6] it was 34%.

On to `O=C1Nc2ccccc2/C1=C\c1ccc2cn[nH]c2c1` [Example A5, (E)-3-((1H-indazol-6-yl)methylene)indolin-2-one], for which the IC50 is 5 to 50 µM in experiment [2], 5 to 50 µM in experiment [3], under 5 µM in experiment [4] and under 5 µM in experiment [5]. Besides, the inhibition at 10 µM in experiment [6] is 24%.

On to `O=C1Nc2ccccc2/C1=C\c1ccc2c(/C=C/c3ccccc3Cl)n[nH]c2c1` [Example A60, (E)-3-((3-((E)-2-chlorostyryl)-1H-indazol-6-yl)methylene)indolin-2-one], for which the IC50 in experiment [1], in experiment [4] and in experiment [5] was under 5 µM each time. The inhibition at 10 µM is under 50% in experiment [2], under 50% in experiment [3] and 40% in experiment [6].

Usually IC50 stands for the midpoint of a concentration-inhibition curve.
